Measurements published in ChEMBL document CHEMBL4321783, “Recent Progress in Natural-Product-Inspired Programs Aimed To Address Antibiotic Resistance and Tolerance” (J Med Chem, 2019).
pIC50: −log10 of the molar value. ≈ marks a conversion by molar mass, not a printed value. Positions of bridges follow the written chain, without caps; N, C: chain ends. Non-standard residues stand in square brackets, D forms with d. Residues, ends and D or L forms follow the SMILES beside them. *: point of attachment. Octatrienoyl(2E,4E,6E) = C/C=C/C=C/C=C/C(=O)*; Pro(4R-Me) = C[C@H]1CN[C@H](C(=O)O)C1; NMeA = CN[C@@H](C)C(=O)O

Assays:
[1] = tested on: Escherichia coli; experiment: Antibacterial activity against Escherichia coli MG1655 by broth microdilution method; format: functional; conditions: K-12 substr. MG1655
[2] = tested on: Escherichia coli; experiment: Antibacterial activity against Escherichia coli ELZ4239 by broth microdilution method; format: functional
[3] = tested on: Escherichia coli; experiment: Antibacterial activity against Escherichia coli BAA-2469 by broth microdilution method; format: functional
[4] = tested on: Enterobacter cloacae; experiment: Antibacterial activity against Enterobacter cloacae 3-46 by broth microdilution method; format: functional
[5] = tested on: Escherichia coli; experiment: Antibacterial activity against Escherichia coli ELZ4081 by broth microdilution method; format: functional
[6] = tested on: Staphylococcus aureus; experiment: Antibacterial activity against Staphylococcus aureus NRS3 by broth microdilution method; format: functional
[7] = tested on: Enterobacter cloacae; experiment: Antibacterial activity against Enterobacter cloacae 1-60 by broth microdilution method; format: functional
[8] = tested on: Klebsiella pneumoniae; experiment: Antibacterial activity against Klebsiella pneumoniae ATCC 27736 by broth microdilution method; format: functional
[9] = tested on: Escherichia coli; experiment: Antibacterial activity against Escherichia coli ELZ4017 by broth microdilution method; format: functional
[10] = tested on: Klebsiella pneumoniae; experiment: Antibacterial activity against Klebsiella pneumoniae 6-73 by broth microdilution method; format: functional
[11] = tested on: Klebsiella pneumoniae; experiment: Antibacterial activity against Klebsiella pneumoniae 4-38 by broth microdilution method; format: functional
[12] = tested on: Enterobacter cloacae; experiment: Antibacterial activity against Enterobacter cloacae ATCC 29893 by broth microdilution method; format: functional
[13] = tested on: Escherichia coli; experiment: Antibacterial activity against Escherichia coli ELZ4045 by broth microdilution method; format: functional
[14] = tested on: Escherichia coli; experiment: Antibacterial activity against Escherichia coli ELZ4346 by broth microdilution method; format: functional
[15] = Drug accumulation in Escherichia coli MG1655 assessed per 10^12 CFU at 50 uM incubated for 10 mins under shaking condition by LC-MS/MS analysis; format: ADME, K-12 substr. MG1655
[16] = tested on: Staphylococcus aureus; experiment: Antibacterial activity against Staphylococcus aureus ATCC 29213 by broth microdilution method; format: functional
[17] = tested on: Escherichia coli; experiment: Antibacterial activity against Escherichia coli ELZ4072 by broth microdilution method; format: functional
[18] = tested on: Pseudomonas aeruginosa; experiment: Growth inhibition of Pseudomonas aeruginosa PA14 after 24 hrs; format: functional, organism-based; conditions: PA14, 24 h
[19] = tested on: Staphylococcus aureus; experiment: Antibacterial activity against methicillin-resistant Staphylococcus aureus NRS119 by CLSI-based broth microdilution method; format: functional, organism-based
[20] = tested on: Pseudomonas aeruginosa; experiment: Antibacterial activity against Pseudomonas aeruginosa PA4 after 20 hrs under iron-deficient medium by broth microdilution method; format: functional; conditions: PA4, 20 h
[21] = tested on: Pseudomonas aeruginosa; experiment: Antibacterial activity against Pseudomonas aeruginosa KW799/61 after 20 hrs under iron-deficient medium by broth microdilution method; format: functional; conditions: KW799/61, 20 h
[22] = tested on: Pseudomonas aeruginosa; experiment: Antibacterial activity against Pseudomonas aeruginosa PA4 after 20 hrs under iron-rich medium by broth microdilution method; format: functional; conditions: PA4, 20 h
[23] = tested on: Pseudomonas aeruginosa; experiment: Antibacterial activity against Pseudomonas aeruginosa KW799 after 20 hrs under iron-deficient medium by broth microdilution method; format: functional; conditions: KW799, 20 h
[24] = tested on: Pseudomonas aeruginosa; experiment: Antibacterial activity against Pseudomonas aeruginosa PAO1 after 20 hrs under iron-deficient medium by broth microdilution method; format: functional; conditions: PAO1, 20 h
[25] = tested on: Pseudomonas aeruginosa; experiment: Antibacterial activity against Pseudomonas aeruginosa KW799 after 20 hrs under iron-rich medium by broth microdilution method; format: functional; conditions: KW799, 20 h
[26] = tested on: Pseudomonas aeruginosa; experiment: Antibacterial activity against Pseudomonas aeruginosa PAO1 after 20 hrs under iron-rich medium by broth microdilution method; format: functional; conditions: PAO1, 20 h
[27] = tested on: Pseudomonas aeruginosa; experiment: Antibacterial activity against Pseudomonas aeruginosa KW799/61 after 20 hrs under iron-rich medium by broth microdilution method; format: functional; conditions: KW799/61, 20 h
[28] = tested on: Pseudomonas aeruginosa; experiment: Antibacterial activity against Pseudomonas aeruginosa; format: functional
[29] = tested on: Staphylococcus aureus; experiment: Antibacterial activity against methicillin-resistant Staphylococcus aureus; format: functional
[30] = tested on: Klebsiella pneumoniae; experiment: Antibacterial activity against Klebsiella pneumoniae; format: functional
[31] = tested on: Staphylococcus aureus; experiment: Antibacterial activity against methicillin-resistant Staphylococcus aureus NRS384 expressing MsrA by broth microdilution method; format: functional
[32] = tested on: Streptococcus pneumoniae; experiment: Antibacterial activity against Streptococcus pneumoniae ATCC 49619 by broth microdilution method; format: functional
[33] = tested on: Acinetobacter baumannii; experiment: Antibacterial activity against Acinetobacter baumannii ATCC 19606 by broth microdilution method; format: functional; conditions: ATCC 19606 = CIP 70.34 = JCM 6841
[34] = tested on: Staphylococcus aureus; experiment: Antibacterial activity against Staphylococcus aureus BAA-977 expressing iermA by broth microdilution method; format: functional
[35] = tested on: Enterococcus faecalis; experiment: Antibacterial activity against Enterococcus faecalis UNT-047 expressing ermB by broth microdilution method; format: functional
[36] = tested on: Enterococcus faecalis; experiment: Antibacterial activity against Enterococcus faecalis ATCC 29212 by broth microdilution method; format: functional
[37] = tested on: Pseudomonas aeruginosa; experiment: Antibacterial activity against Pseudomonas aeruginosa ATCC 27853 by broth microdilution method; format: functional
[38] = tested on: Streptococcus pneumoniae; experiment: Antibacterial activity against Streptococcus pneumoniae UNT-042 expressing ermB/mefA by broth microdilution method; format: functional
[39] = tested on: Staphylococcus epidermidis; experiment: Antibacterial activity against Staphylococcus epidermidis ATCC 12228 after 16 to 20 hrs by CLSI protocol based broth microdilution method; format: functional
[40] = tested on: Staphylococcus aureus; experiment: Antibacterial activity against Staphylococcus aureus ATCC 25923 after 16 to 20 hrs by CLSI protocol based broth microdilution method; format: functional
[41] = tested on: Haemophilus influenzae; experiment: Antibacterial activity against Haemophilus influenzae 1244 after 20 hrs by CLSI-based microdilution method; format: functional; conditions: Haemophilus influenzae, 1244, 20 h
[42] = tested on: Enterococcus faecium; experiment: Antibacterial activity against […] Enterococcus faecium 1092 after 20 hrs by CLSI-based microdilution method; format: functional; conditions: Enterococcus faecium, 1092, 20 h
[43] = tested on: Escherichia coli; experiment: Antibacterial activity against Escherichia coli 121 after 20 hrs by CLSI-based microdilution method; format: functional; conditions: O157:H7 str. 121, 20 h
[44] = tested on: Escherichia coli; experiment: Antibacterial activity against Escherichia coli 2271 after 20 hrs by CLSI-based microdilution method; format: functional; conditions: Escherichia coli, 2271, 20 h
[45] = tested on: Staphylococcus aureus; experiment: Antibacterial activity against methicillin-resistant Staphylococcus aureus 757 after 20 hrs by CLSI-based microdilution method; format: functional; conditions: Staphylococcus aureus, 757, 20 h
[46] = tested on: Staphylococcus aureus; experiment: Antibacterial activity against methicillin-resistant Staphylococcus aureus 2011 after 20 hrs by CLSI-based microdilution method; format: functional; conditions: Staphylococcus aureus, 2011, 20 h
[47] = tested on: Streptococcus pneumoniae; experiment: Antibacterial activity against Streptococcus pneumoniae 911 after 20 hrs by CLSI-based microdilution method; format: functional; conditions: Streptococcus pneumoniae, 911, 20 h

Cc1cc(=O)n(C)c2c3c4c(cc12)c(C)cc(=O)n4CCO3
MIC [1]: > 32 µg/mL | MIC [2]: > 32 µg/mL | MIC [3]: > 32 µg/mL | MIC [4]: ≥ 32 µg/mL | MIC [5]: > 32 µg/mL | MIC [6]: 0.06 to 1 µg/mL (≈ 0.202 to 3.37 µM) | MIC [7]: ≥ 32 µg/mL | MIC [8]: > 32 µg/mL | MIC [9]: > 32 µg/mL | MIC [10]: > 32 µg/mL | MIC [11]: > 32 µg/mL | MIC [12]: ≥ 32 µg/mL | MIC [13]: > 32 µg/mL | MIC [14]: > 32 µg/mL | Drug uptake [15]: 298 nmol | MIC [16]: 0.06 to 1 µg/mL (≈ 0.202 to 3.37 µM) | MIC [17]: > 32 µg/mL

CCCCCC[C@H](CCCCC[C@@H](O)C(N)=O)OC(=O)[C@@H]1CCCCN1C(=O)c1ccccc1O
pIC50 [18]: < 3.60

CCCCCC[C@H](CCCCC[C@@H](O)C(N)=O)OC(=O)[C@@H]1CC(F)=CN1C(=O)c1ccccc1O
pIC50 [18]: 7.72

CCCCCC[C@H](CCCCC[C@@H](O)C(N)=O)NC(=O)[C@@H]1CC=CN1C(=O)c1ccccc1O
pIC50 [18]: < 3.60

C[C@@H]1C[C@H]2C(=O)OC[C@H](NC(=O)[C@H](Cc3cc(F)cc(F)c3)NC(=O)CCC3CCCCC3)C(=O)N3CCC[C@H]3C(=O)N3CCCC[C@H]3C(=O)N[C@@H](C)C(=O)N2C1
pIC50 [19]: 6.30

C/C=C/C=C/C=C/C(=O)N[C@@H](Cc1ccccc1)C(=O)N[C@H]1COC(=O)[C@@H]2C[C@@H](C)CN2C(=O)[C@H](C)NC(=O)[C@H](C)N(C)C(=O)[C@@H]2CCCN2C1=O ({Octatrienoyl(2E,4E,6E)}-FSP[NMeA]A[Pro(4R-Me)]; ester 2-C)
pIC50 [19]: 5.06

CC1(C)S[C@@H]2[C@H](NC(=O)[C@H](N)c3ccc(O)cc3)C(=O)N2[C@H]1C(=O)O [AMOXICILLIN]
MIC [20]: > 100 µM | MIC [21]: > 100 µM | MIC [22]: > 100 µM | MIC [23]: > 100 µM | MIC [24]: > 100 µM | MIC [25]: > 100 µM | MIC [26]: > 100 µM | MIC [27]: > 100 µM

CN(C)[C@@H]1C(O)=C(C(N)=O)C(=O)[C@@]2(O)C(O)=C3C(=O)c4c(O)c(NC(=O)CN5CCCC5)cc(F)c4C[C@H]3C[C@@H]12 [ERAVACYCLINE]
MIC [28]: 0.06 to 64 µg/mL | MIC [29]: 0.015 to 4 µg/mL (≈ 0.0269 to 7.16 µM) | MIC [30]: 0.03 to 16 µg/mL (≈ 0.0537 to 28.6 µM)

CC[C@H]1OC(=O)[C@H](C)[C@@H](O[C@H]2C[C@@](C)(OC)[C@@H](O)[C@H](C)O2)[C@H](C)[C@@H](O[C@@H]2O[C@H](C)C[C@H](N(C)C)[C@H]2O)[C@](C)(O)C[C@@H](C)C(=O)[C@H](C)[C@@H](O)[C@]1(C)O [ERYTHROMYCIN]
MIC [31]: 64 µg/mL (≈ 87.2 µM) | MIC [32]: 0.03 µg/mL (≈ 0.0409 µM) | MIC [33]: 16 µg/mL (≈ 21.8 µM) | MIC [34]: > 256 µg/mL | MIC [35]: > 256 µg/mL | MIC [36]: 1 µg/mL (≈ 1.36 µM) | MIC [37]: 64 µg/mL (≈ 87.2 µM) | MIC [16]: 0.5 µg/mL (≈ 0.681 µM) | MIC [38]: > 256 µg/mL

c1ccc2nc3ccccc3nc2c1 [PHENAZINE]
MIC [39]: 6.25 µM (≈ 1.13 µg/mL) | MIC [40]: 6.25 µM (≈ 1.13 µg/mL)

Cn1c2cccc(=O)c-2nc2ccccc21 [PYOCYANIN]
MIC [39]: 50 µM (≈ 10.5 µg/mL) | MIC [40]: 50 µM (≈ 10.5 µg/mL)

CN(C)[C@@H]1C(O)=C(C(N)=O)C(=O)[C@@]2(O)C(O)=C3C(=O)c4c(O)cccc4[C@@](C)(O)[C@H]3C[C@@H]12 [TETRACYCLINE]
MIC [41]: 16 µg/mL (≈ 36 µM) | MIC [42]: > 64 µg/mL | MIC [43]: 64 µg/mL (≈ 144 µM) | MIC [44]: 64 µg/mL (≈ 144 µM) | MIC [45]: 64 µg/mL (≈ 144 µM) | MIC [46]: 32 µg/mL (≈ 72 µM) | MIC [47]: 64 µg/mL (≈ 144 µM)
